Data: patent US5536645A, “Nutritive medium for the culture of microorganism” (priority 1993, dated 1996)
Where two headings read alike, the source gives them in different places. Ends that are not written are not given here.

What was measured:
Type in all cases: cell-based
enterococci = test: Effect of medium constituents and peptides on growth of enterococci; details: for base requirements of the enterococci: supplied as precursors; for growth: addition of peptides to the medium
Source text: It is moreover known to affect the activity of the sulfamides and trimethoprim family (Then R. et al., Mecanisme moleculaire de la bactericidie; sulfamides et trimethoprime [Molecular mechanism of bactericidal activity; sulfamides and trimethoprim]. Bactericidie 1990, Editions Maloine, Paris).
The purine and pyrimidine bases can be supplied in several forms, that is to say in the form of precursors, of free bases, of nucleosides or of nucleotides. […] The proportions between purines and pyrimidines were defined in relation to those described for the synthesis of RNA by Neidhart (Neidhart et al. (1990) Physiology of the bacterial cell. A molecular approach. Sinauer associates, inc. U.S.A.), taking account of the absence of thymidine, that is to say purines/pyrimidines in a ratio of between 1.5 and 2.2 and advantageously of 1.8. The final concentrations were then optimized essentially to satisfy the growth of the staphylococci and of the enterococci.

Pseudomonas aeruginosa = test: Effect of L-malic acid on growth (FIG. 11); details: 500 mg/l in FIG. 11
Protocol: FIGS. 11 illustrates the effect of L-malic acid on the growth of Pseudomonas aeruginosa, curve a corresponding to the growth obtained with an IST medium devoid of L-malic acid and curve b after addition of a concentration of 500 mg/l of L-malic acid.
(§1) The carbon sources of the medium of the invention are mainly represented by a sugar, preferably D-glucose, and an organic acid, in particular L-malic acid. D-glucose has been retained, taking account of its utilization by a large number of bacterial species with fermentative or non-fermentative metabolism (Stanier R. Y. et al. (1966) The aerobic Pseudomonas: a taxonomic study. J. Gen. Microbiol. 43: 159-271). Its concentration in the medium of the invention was determined to obtain a biomass close to that obtained with the reference Mueller-Hinton medium. […] The respective concentrations of D-glucose and L-malic acid were determined to correspond to the qualities of Mueller-Hinton.

[1] = tested on: non-saccharolytic species, such as Alcaligenes faecalis and Pseudomonas acidovorans; test: Effect of L-malic acid on growth (FIG. 10); details: 500 mg/l in FIG. 10
Protocol: as §1

[2] = tested on: Proteus, Morganella, Providencia and Serratia; test: Effect of polyamines on growth; details: preferential concentration 0.75 mg/l
Protocol: The polyamines are present in the eukaryotic and prokaryotic cells and participate in numerous biological reactions including the synthesis of nucleic acids and of proteins (see Tabor C. W. and Tabor H. (1985) Polyamines in Microorganisms, Microbiol. Rev. 49: 81-99). Putrescine, spermine and spermidine were tested. […] FIG. 7 illustrates the effect of spermidine on the growth of Proteus mirabilis.

E. coli = test: microbe, parasite or virus in culture; details: for MIC: Escherichia coli, 12 h, read-out: Equivalent MIC
Protocol: (§2) With the determination of the sensitivity to antibiotics in mind, a suspension of 0.5 MF (Mac Farland) in physiological water was prepared from bacterial colonies selected in Petri dishes, reading being carried out on an ATB 1550 densitometer marketed by BIOMERIEUX (ATB trade mark). The suspension obtained was respectively diluted to 1/100th in the medium of the invention and Mueller-Hinton medium. VITEK cards (VITEK trade mark) containing different antibiotics at 10 concentrations were filled in vacuo into a VITEK apparatus marketed by BIOMERIEUX-VITEK. The cards were incubated for 12 hours in a VITEK incubator/reader marketed by BIOMERIEUX-VITEK. The growth kinetics were visualized and interpreted and an equivalent MIC was determined (equivalent MIC: equivalent minimum inhibitory concentration, that is to say the smallest concentration for which no bacterial growth is detected by the apparatus).
(§3) IST refers to the medium of the invention and MH signifies Mueller-Hinton medium.
(§4) S, I and R respectively signify "sensitive", "intermediate" and "resistant" with reference to the critical concentrations defined by the NCCLS (National Committee for Clinical Laboratory Standards).

S. marcescens = test: Equivalent MIC of antibiotics in VITEK cards, gram-negative bacteria (Table 3); details: for MIC: Serratia marcescens, 12 h
Protocol: as §2, §3, §4

P. aeruginosa = test: as above; details: for MIC: Pseudomonas aeruginosa
Protocol: as §2, §3, §4

[3] = tested on: enterococci and streptococci of group B; test: Effect of lipoic acid on growth (FIG. 6); details: 0.01 mg/l in FIG. 6
Source text: FIG. 6 illustrates the effect of lipoic acid on the growth of Enterococcus faecalis.

Serratia marcescens = test: Effect of serine concentration on growth (FIG. 1); details: serine concentration increased by a factor of 10 in IST medium
Source text: Curve b represents the growth with the IST medium for a concentration of serine increased by a factor of 10. Curve c represents the growth obtained with the Mueller-Hinton medium.
The qualitative and quantitative composition of amino acids was then optimized for the different species in order to obtain growth in conformity with that obtained with the reference Mueller-Hinton medium. […] The final concentrations of amino acids were defined, after having verified their importance on the final biomass, taking account of the biomass obtained in Mueller-Hinton medium.

[4] = tested on: Enterococcus hirae and Enterococcus faecium; test: Effect of tetrapeptide on growth (FIG. 14); details: 50 or 100 mg/l of peptide in FIG. 14
Protocol: Curve a corresponds to the results obtained with the medium of the invention without addition of the abovementioned peptide, nor addition of constituent free amino acids of this peptide. Curve b illustrates the results obtained with the addition of amino acids Ala, Gly, Ser, GLu respectively at concentrations of 11, 9, 12.5 and 17.5 mg/l. […] Curve d corresponds to the bacterial growth obtained after addition to the medium of 50 mg/l of the peptide. Curve e illustrates the results obtained after addition of 100 mg/l of the same peptide.
Among the peptides tested, only those showing size a less than or equal to 15 amino acids cause a strong increase in the growth.

staphylococci = test: Effect of ethyl oxaloacetate on growth (FIG. 8); details: 5 mg/l in FIG. 8
Source text: Ethyl oxaloacetate is described for its stimulatory effect on the growth of numerous species (Pelczar M. J. and Brown J. H. (1951) Synthetic culture media for reference use in dairy bacteriology, J. Milk Food Technol., 14: 90-91 and 97).

Nc1nc2ncc(CNc3ccc(C(=O)N[C@@H](CCC(=O)O)C(=O)O)cc3)nc2c(=O)[nH]1 [Folic acid, folic acid]
importance for the growth of enterococci (enterococci; E. faecalis, E. faecium and E. hirae, 0.005 mg/l in FIG. 5): importance for the growth of enterococci

O=C(O)C[C@H](O)C(=O)O [L-malic acid]
growth (Pseudomonas aeruginosa): increases the growth of Pseudomonas aeruginosa
growth [1]: necessary for the growth of the non-saccharolytic species

NCCCCNCCCN [Spermidine, spermidine]
growth [2]: chosen according to the results, especially for the growth of Proteus, Morganella, Providencia and Serratia

CC(C)(O/N=C(\C(=O)N[C@@H]1C(=O)N2C(C(=O)[O-])=C(C[n+]3ccccc3)CS[C@H]12)c1csc(N)n1)C(=O)O [ceftazidim]
NCCLS Category (E. coli; CDC 2008, IST medium): S
NCCLS Category (E. coli; CDC 2008, MH medium): S
NCCLS Category (E. coli; CDC 2254, IST medium): S
NCCLS Category (E. coli; CDC 2254, MH medium): S
MIC (E. coli; CDC 2008, IST medium): < 0.06 µg/mL
MIC (E. coli; CDC 2008, MH medium): < 0.06 µg/mL
MIC (E. coli; CDC 2254, IST medium): 0.5 µg/mL
MIC (E. coli; CDC 2254, MH medium): 1 µg/mL
NCCLS Category (S. marcescens; CDC 2102, IST medium): S
NCCLS Category (S. marcescens; CDC 2102, MH medium): S
NCCLS Category (S. marcescens; CDC 2162, IST medium): S
NCCLS Category (S. marcescens; CDC 2162, MH medium): S
NCCLS Category (S. marcescens; CDC 2240, IST medium): S
NCCLS Category (S. marcescens; CDC 2240, MH medium): S
MIC (S. marcescens; read-out: Equivalent MIC, CDC 2102, IST medium): 0.5 µg/mL
MIC (S. marcescens; read-out: Equivalent MIC, CDC 2102, MH medium): 0.25 µg/mL
MIC (S. marcescens; read-out: Equivalent MIC, CDC 2162, IST medium): 2 µg/mL
MIC (S. marcescens; read-out: Equivalent MIC, CDC 2162, MH medium): 2 µg/mL
MIC (S. marcescens; read-out: Equivalent MIC, CDC 2240, IST medium): 0.5 to 1 µg/mL
MIC (S. marcescens; read-out: Equivalent MIC, CDC 2240, MH medium): 1 µg/mL
NCCLS Category (P. aeruginosa; AP 9, IST medium): R
NCCLS Category (P. aeruginosa; AP 9, MH medium): R
NCCLS Category (P. aeruginosa; AP 13, IST medium): S
NCCLS Category (P. aeruginosa; AP 13, MH medium): S
NCCLS Category (P. aeruginosa; ATCC 27853, IST medium): S
NCCLS Category (P. aeruginosa; ATCC 27853, MH medium): S
NCCLS Category (P. aeruginosa; CDC 2275, IST medium): S
NCCLS Category (P. aeruginosa; CDC 2275, MH medium): S
MIC (P. aeruginosa; 12 h, read-out: Equivalent MIC, AP 9, IST medium): 32 µg/mL
MIC (P. aeruginosa; 12 h, read-out: Equivalent MIC, AP 9, MH medium): 32 µg/mL
MIC (P. aeruginosa; 12 h, read-out: Equivalent MIC, AP 13, IST medium): 4 µg/mL
MIC (P. aeruginosa; 12 h, read-out: Equivalent MIC, AP 13, MH medium): 4 µg/mL
MIC (P. aeruginosa; 12 h, read-out: Equivalent MIC, CDC 2275, IST medium): 4 µg/mL
MIC (P. aeruginosa; 12 h, read-out: Equivalent MIC, CDC 2275, MH medium): 4 µg/mL
MIC (P. aeruginosa; ATCC27853, 12 h, read-out: Equivalent MIC, ATCC 27853, IST medium): 1 µg/mL
MIC (P. aeruginosa; ATCC27853, 12 h, read-out: Equivalent MIC, ATCC 27853, MH medium): 2 µg/mL

O=c1[nH]cnc2nc[nH]c12 [hypoxanthine]
base requirements of the enterococci (enterococci): does not satisfy the base requirements of the enterococci

O=C(O)CCCCC1CCSS1 (stereo not drawn) [lipoic acid]
growth [3]: allowing the growth of the enterococci and of the streptococci of group B to be increased to a maximum

N[C@@H](CO)C(=O)O [serine]
bacterial growth (Serratia marcescens): near to that obtained with Mueller-Hinton medium

O=c1cc[nH]c(=O)[nH]1 [uracil]
base requirements of the enterococci (enterococci): does not satisfy the base requirements of the enterococci

ASDAKAYDTEV
growth (enterococci): interesting results for other strains of Enterococci

Ala-Gly-Ser-Glu (AGSE) [Ala-Gly-Ser-Glu (SEQ ID NO: 1)]
growth [4]: considerable increase in the growth

EDRPPLFGQGTV
growth (enterococci): interesting results for other strains of Enterococci

ethyl oxaloacetate
growth (staphylococci): allowing the growth of the staphylococci to be increased without inhibiting that of the other species
